Data published in US8513232B2, “Substituted spirocyclic piperidine derivatives as histamine-3 (H3) receptor ligands” (Cephalon, Inc., priority 2008, dated 2013).
Read-outs that look alike come from different tables or passages of the source.

Legend:
[1] = target: T1, rat histamine H3 receptor (Rattus norvegicus, UniProt Q9QYN8); assay: Rat H3 radioligand binding ([3H]-N-alpha-methylhistamine, SPA)
T1 construct: encoding the entire 445-amino-acid rat histamine H3 receptor; expressed in transfected cells; membrane preparation
T1 sequence (Q9QYN8 whole entry): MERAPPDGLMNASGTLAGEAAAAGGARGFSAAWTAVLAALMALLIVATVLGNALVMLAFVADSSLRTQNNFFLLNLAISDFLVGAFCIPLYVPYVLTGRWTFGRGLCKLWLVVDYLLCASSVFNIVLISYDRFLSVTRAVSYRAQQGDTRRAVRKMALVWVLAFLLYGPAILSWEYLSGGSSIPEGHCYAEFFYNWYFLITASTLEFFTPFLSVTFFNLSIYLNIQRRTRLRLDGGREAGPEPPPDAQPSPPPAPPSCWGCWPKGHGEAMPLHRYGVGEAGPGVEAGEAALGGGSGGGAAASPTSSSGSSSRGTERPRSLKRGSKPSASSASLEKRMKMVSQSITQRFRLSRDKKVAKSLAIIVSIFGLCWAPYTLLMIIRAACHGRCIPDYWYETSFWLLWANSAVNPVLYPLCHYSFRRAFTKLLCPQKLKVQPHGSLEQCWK
Outline: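 SPA-bead binding assay using [3H]-N-alpha-methylhistamine (approximately 1 nM final) with test compounds from 0.01 nM to 30 μM. Rat H3 receptor membranes came from stably transfected CHO-A3 cells; incubation ran 4 h at room temperature, in the dark, in Tris pH 7.4 buffer with MgCl2 and BSA. Clobenpropit (10 μM) gave non-specific binding.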

human H3 receptor = target: T2, human H3 receptor (Homo sapiens, UniProt Q9Y5N1); assay: Human H3 radioligand binding ([3H]-N-alpha-methylhistamine, SPA)
T2 construct: expressed in transfected cells
T2 sequence (Q9Y5N1 whole entry): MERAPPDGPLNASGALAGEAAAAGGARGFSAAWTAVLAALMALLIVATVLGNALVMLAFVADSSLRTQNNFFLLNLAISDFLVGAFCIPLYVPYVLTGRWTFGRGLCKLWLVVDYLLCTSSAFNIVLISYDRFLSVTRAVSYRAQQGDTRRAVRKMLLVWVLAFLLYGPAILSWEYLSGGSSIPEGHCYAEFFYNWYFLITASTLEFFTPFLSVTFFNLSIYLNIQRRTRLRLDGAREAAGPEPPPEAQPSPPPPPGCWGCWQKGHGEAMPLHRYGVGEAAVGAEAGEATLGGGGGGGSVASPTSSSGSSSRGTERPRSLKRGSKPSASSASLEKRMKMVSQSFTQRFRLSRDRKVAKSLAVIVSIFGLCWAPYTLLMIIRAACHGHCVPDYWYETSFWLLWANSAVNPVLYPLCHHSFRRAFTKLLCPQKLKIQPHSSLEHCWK
Outline: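 Compounds (0.01 nM-30 μM) competed with approximately 1 nM [3H]-N-alpha-methylhistamine for human H3 receptor in membranes of stably transfected CHO cells, 10 μg protein per well, in Tris-HCl pH 7.4/MgCl2/BSA buffer for 4 h at room temperature. Bound radioligand measured by scintillation proximity; 10 μM clobenpropit gave non-specific binding.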

[2] = rat H3 binding, Table D, read-out: Rat H3 Ki
[3] = human H3 binding, Table D, read-out: Human H3 Ki
[4] = Rat H3 binding, Table B, Examples 136-362, read-out: rat H3 binding Ki
[5] = Human H3 binding, Table B, Examples 136-362, read-out: hum H3 binding Ki
[6] = Table C, rat H3 binding, read-out: Rat H3 Ki
[7] = Table C, human H3 binding, read-out: Human H3 Ki
[8] = Table A, rat H3 binding, read-out: Rat Ki
[9] = Table A, human H3 binding, read-out: Human Ki

SMILES | melting point | Ki [1, 4] | Ki (human H3 receptor; [5]) | further results
O=C(Nc1ccc2c(c1)COC1(CCN(C3CCC3)CC1)O2)C1CCOCC1 [Example 349] | 228 to 229 °C | < 200 nM | < 200 nM | –
c1cc2c(cc1N1CCNCC1)CCC1(CCN(C3CCC3)CC1)O2 [Example 377] | 116 to 118 °C | – | – | Ki [1, 6]: < 200 nM; Ki (human H3 receptor; [7]): < 200 nM
O=C(Nc1ccc2c(c1)COC1(CCN(C3CCC3)CC1)O2)c1ccncc1F [Example 277] | 168 to 169 °C | < 200 nM | < 200 nM | –
Cn1cc(-c2ccc3c(c2)COC2(CCN(C4CCC4)CC2)O3)c2ccccc2c1=O [Example 786] | 207 to 209 °C | – | – | Ki [1, 2]: < 200 nM; Ki (human H3 receptor; [3]): < 200 nM
O=C(Nc1ccc2c(c1)COC1(CCN(C3CCC3)CC1)O2)c1ccnc(F)c1 [Example 291] | 187 to 188 °C | < 200 nM | < 200 nM | –
O=C(N[C@@H]1CCOC1)c1ccc(-c2ccc3c(c2)CCC2(CCN(C4CCC4)CC2)O3)cc1 [Example 341] | 194 to 195 °C | < 200 nM | < 200 nM | –
O=C(NC[C@H]1CCCO1)c1ccc(-c2ccc3c(c2)CCC2(CCN(C4CCC4)CC2)O3)cc1Cl [Example 572] | 62 to 64 °C | – | – | Ki [1, 2]: < 200 nM; Ki (human H3 receptor; [3]): < 200 nM
O=C(Nc1ccc2c(c1)COC1(CCN(C3CCC3)CC1)O2)c1cnccn1 [Example 304] | 173 to 175 °C | < 200 nM | < 200 nM | –
O=C(c1cccc(-c2ccc3c(c2)COC2(CCN(C4CCC4)CC2)O3)c1)N1CCCC1 [Example 57] | 221.7 °C | – | – | Ki [1, 8]: < 200 nM; Ki (human H3 receptor; [9]): < 200 nM
O=C(NC1CCOCC1)c1ccc(-c2ccc3c(c2)CCC2(CCN(C4CCC4)CC2)O3)cc1 [Example 361] | 205 to 207 °C | < 200 nM | < 200 nM | –
C=CCOC1(c2ccc3c(c2)COC2(CCN(C4CCC4)CC2)O3)CC(C(=O)N2CCCC2)C1 (stereo not drawn) [Example 561] | 49 to 51 °C | – | – | Ki ([1]; read-out: Rat H3 kI): 200 to 1000 nM; Ki (human H3 receptor; read-out: Human H3 Ki): 200 to 1000 nM
O=C(Nc1ccc2c(c1)COC1(CCN(C3CCC3)CC1)O2)c1ccncc1Cl [Example 221] | 192 to 193 °C | < 200 nM | < 200 nM | –
c1cc2c(cc1N1CCCC1)CCC1(CCN(C3CCC3)CC1)O2 [Example 420] | > 275 °C (dec.) | – | – | Ki [1, 6]: < 200 nM; Ki (human H3 receptor; [7]): < 200 nM
CNC(=O)c1cnc(-c2ccc3c(c2)COC2(CCN(C4CCC4)CC2)O3)s1 [Example 164] | 200 to 203 °C | < 200 nM | < 200 nM | –
c1cnc(Oc2ccc3c(c2)CCC2(CCN(C4CCC4)CC2)O3)nc1 [Example 400] | 258 to 260 °C | – | – | Ki ([1]; Table C, rat H3 binding, given as numeric bound, read-out: Rat H3 Ki): > 300 nM; Ki (human H3 receptor; [7]): 200 to 1000 nM
Cc1cc(=O)[nH]c(C)c1-c1ccc2c(c1)COC1(CCN(C3CCC3)CC1)O2 [Example 806] | 247 to 249 °C | – | – | Ki [1, 2]: < 200 nM; Ki (human H3 receptor; [3]): < 200 nM
CCn1cc(-c2ccc3c(c2)COC2(CCN(C4CCC4)CC2)O3)ccc1=O [Example 778] | 156 to 158 °C | – | – | Ki [1, 2]: < 200 nM; Ki (human H3 receptor; [3]): < 200 nM
O=C(NC1CCOCC1)c1ccc(-c2ccc3c(c2)COC2(CCN(C4CCC4)CC2)O3)cc1 [Example 362] | 216 to 218 °C | < 200 nM | < 200 nM | –
NS(=O)(=O)c1ccc(-c2ccc3c(c2)COC2(CCN(C4CCC4)CC2)O3)cc1 [Example 48] | 195 to 200 °C | – | – | Ki [1, 8]: < 200 nM; Ki (human H3 receptor; [9]): < 200 nM
COCCNC(=O)N1CCN(c2ccc3c(c2)COC2(CCN(C4CCC4)CC2)O3)CC1 [Example 275] | 66.8 to 68.4 °C | < 200 nM | < 200 nM | –
CC(C)NC(=O)c1ccc(-c2ccc3c(c2)COC2(CCN(C4CCC4)CC2)O3)cc1 [Example 301] | 221 to 222 °C | < 200 nM | < 200 nM | –
CCc1nnc(CCc2ccc3c(c2)COC2(CCN(C4CCC4)CC2)O3)o1 [Example 694] | 98 to 100 °C | – | – | Ki [1, 2]: < 200 nM; Ki (human H3 receptor; [3]): < 200 nM

Second part, led by results:

melting point | Ki [1, 4] | Ki (human H3 receptor; [5]) | SMILES | further results
50 to 52 °C | – | – | COCCNC(=O)c1ccc(-c2ccc3c(c2)COC2(CCN(C4CCC4)CC2)O3)cc1OC [Example 634] | Ki [1, 2]: < 200 nM; Ki (human H3 receptor; [3]): < 200 nM
266 to 268 °C | < 200 nM | < 200 nM | c1cc(Oc2ccc3c(c2)CCC2(CCN(C4CCC4)CC2)O3)ccn1 [Example 273] | –
120 to 125 °C | – | – | CN1CC(c2ccc3c(c2)COC2(CCN(C4CCC4)CC2)O3)CCC1=O (stereo not drawn) [Example 550] | Ki ([1]; read-out: Rat H3 kI): < 200 nM; Ki (human H3 receptor; read-out: Human H3 Ki): < 200 nM
262 to 264 °C | – | – | O=c1ccc(-c2ccc3c(c2)COC2(CCN(C4COC4)CC2)O3)c[nH]1 [Example 718] | Ki [1, 2]: > 1000 nM; Ki (human H3 receptor; [3]): > 1000 nM
66.8 to 67.5 °C | < 200 nM | < 200 nM | COC1CCN(C(=O)c2ccc(-c3ccc4c(c3)CCC3(CCN(C5CCC5)CC3)O4)cc2)CC1 [Example 230] | –
88 to 90 °C | – | – | c1cc2c(cc1C1CCNCC1)CCC1(CCN(C3CCC3)CC1)O2 [Example 452] | Ki ([1]; read-out: Rat H3 kI): < 200 nM; Ki (human H3 receptor; read-out: Human H3 Ki): < 200 nM
229 to 231 °C | < 200 nM | < 200 nM | O=C(Nc1ccccc1)Nc1ccc2c(c1)COC1(CCN(C3CCC3)CC1)O2 [Example 162] | –
> 300 °C | – | – | Cc1c(-c2cc[nH]c(=O)c2)ccc2c1COC1(CCN(C3CCC3)CC1)O2 [Example 558] | Ki ([1]; read-out: Rat H3 kI): < 200 nM; Ki (human H3 receptor; read-out: Human H3 Ki): < 200 nM
165 to 168 °C | – | – | O=C1OCCN1c1ccc2c(c1)COC1(CCN(C3CCC3)CC1)O2 [Example 77] | Ki [1, 8]: < 200 nM; Ki (human H3 receptor; [9]): < 200 nM
97 to 99 °C | < 200 nM | < 200 nM | CCCn1cc(-c2ccc3c(c2)CCC2(CCN(C4CCC4)CC2)O3)cn1 [Example 183] | –
174 to 176 °C | < 200 nM | < 200 nM | O=C(N1CCOCC1)N1CCN(c2ccc3c(c2)COC2(CCN(C4CCC4)CC2)O3)CC1 [Example 310] | –
122 to 124 °C | < 200 nM | < 200 nM | CCNC(=O)N1CCN(c2ccc3c(n2)COC2(CCN(C4CCC4)CC2)O3)CC1 [Example 254] | –
149.8 to 150.4 °C | – | – | COc1cc(C)c(-c2ccc3c(c2)COC2(CCN(C4CCC4)CC2)O3)c(C)n1 [Example 795] | Ki [1, 2]: < 200 nM; Ki (human H3 receptor; [3]): < 200 nM
205 to 207 °C | – | – | CCSCc1cc(-c2ccc3c(c2)COC2(CCN(C4CCC4)CC2)O3)c[nH]c1=O [Example 774] | Ki [1, 2]: < 200 nM; Ki (human H3 receptor; [3]): < 200 nM
186 to 188 °C | – | – | O=C1OCCN1c1ccc2c(c1)CCC1(CCN(C3CCC3)CC1)O2 [Example 119] | Ki [1, 8]: < 200 nM; Ki (human H3 receptor; [9]): < 200 nM
206 to 208 °C | < 200 nM | < 200 nM | N#Cc1ccc(C(=O)Nc2ccc3c(c2)COC2(CCN(C4CCC4)CC2)O3)cc1 [Example 154] | –
150 to 152 °C | < 200 nM | < 200 nM | COC1CCN(C(=O)c2ccc(-c3ccc4c(c3)CCC3(CCN(C5CCC5)CC3)O4)cn2)CC1 [Example 251] | –
230 to 232 °C | – | – | CN(C)C(=O)N1CCC(COc2ccc3c(c2)CCC2(CCN(C4CCC4)CC2)O3)CC1 [Example 576] | Ki [1, 2]: < 200 nM; Ki (human H3 receptor; [3]): < 200 nM
130 to 132 °C | < 200 nM | < 200 nM | CC(C)C(=O)N1CCC(COc2ccc3c(c2)CCC2(CCN(C4CCC4)CC2)O3)CC1 [Example 357] | –
215 to 217 °C | – | – | COc1nc(C)c(-c2ccc3c(c2)COC2(CCN(C4CCC4)CC2)O3)cc1C#N [Example 796] | Ki [1, 2]: < 200 nM; Ki (human H3 receptor; [3]): < 200 nM
125 to 126.2 °C | – | – | Cc1noc(C2CCN(c3ccc4c(c3)COC3(CCN(C5CCC5)CC3)O4)CC2)n1 [Example 628] | Ki [1, 2]: < 200 nM; Ki (human H3 receptor; [3]): < 200 nM
210 to 212 °C | – | – | COc1ncccc1-c1ccc2c(c1)COC1(CCN(C3CCC3)CC1)O2 [Example 747] | Ki [1, 2]: < 200 nM; Ki (human H3 receptor; [3]): < 200 nM
135 to 137 °C | – | – | c1cc2c(cc1N1CCC3(CC1)OCCO3)CCC1(CCN(C3CCC3)CC1)O2 [Example 398] | Ki [1, 6]: < 200 nM; Ki (human H3 receptor; [7]): < 200 nM
140 to 141 °C | – | – | c1cc(-c2ccc3c(c2)COC2(CCN(C4CCC4)CC2)O3)[nH]n1 [Example 730] | Ki [1, 2]: < 200 nM; Ki (human H3 receptor; [3]): < 200 nM
100 to 101 °C | < 200 nM | < 200 nM | O=C(c1ccc(-c2ccc3c(c2)COC2(CCN(C4CCC4)CC2)O3)cn1)N1CC[C@@H](O)C1 [Example 173] | –
204.8 to 205.8 °C | – | – | CN(C)c1ncc(-c2ccc3c(c2)COC2(CCN(C4CCC4)CC2)O3)cn1 [Example 42] | Ki [1, 8]: < 200 nM; Ki (human H3 receptor; [9]): < 200 nM
212.6 to 214.2 °C | < 200 nM | < 200 nM | CNC(=O)c1c(F)cc(-c2ccc3c(c2)COC2(CCN(C4CCC4)CC2)O3)cc1F [Example 220] | –
